Marks after values point to notes of the source that are not given here.
Experiments:
rats [1] = test: Training ability of immature under-trained rats in the CRPA test; format: in vivo; settings: for LP1 (training) / LP2 (at 24 h) / ΔLP: under-trained rats 30-35 days
Description: In studying immature animals, it must be considered that to generate CRPA it is required, as was established, to apply higher educational incentives (0.6 mA, 8 pulses vs 5 pulses at 0.45 mA in adult rats) with re-training (after 48 hours). Development of amnesia also requires a higher dose of scopolamine (1.3 mg/kg) in rat pups. […] Phenotropil has not only a psychomodulatory (Ψ-modulatory) activity but also a Ψ-operandmodulatory activity given that the mnemotropic effect is associated with the expression of specific proteins and genes involved in memory, attention and learning.

mice [2] = test: Hypobaric hypoxia in pressure chamber, adult mice; format: in vivo; settings: for Duration of life: adult mice, hypobaric hypoxia
mice [3] = test: Hot plate test (pain sensitivity); format: in vivo; settings: for Latent period (hot plate): mice
Excerpt: The analgesic effect is present at all studied doses and increases with increasing dose.

rats [4] = test: Hypobaric hypoxia in 7-day-old rats; format: in vivo
IL-2 = test: Cytokine profile in supernatants of peripheral mononuclear cultures (ELISA), asthenoneurotic patients; format: in vivo, human; settings: for IL-2 (×10): asthenoneurotic disorders, humans
Description: (§1) The study of immunocompetent activity of Phenotropil included patients with neurasthenia and organic asthenic disorder (20-47 years) of both sexes (men 37%, women 63%). Control group included practically healthy people (20 people). The study groups were similar in age and sex ratio. Phenotropil was administered at a dose of 100 mg/day, one time in the morning for 30 days. Study of the immune and mental status (level of IL-1, IL-2, IL-3, IL-6, α-TNF, α-INF in supernatants of cultures of peripheral mononuclears from whole blood) was carried out before treatment and at days 7, 14, 21 after the therapy course (30 days) and after 3 months of therapy. Blood sampling for analysis was carried out at the same time of day in the control group and in the group of patients. Peripheral mononuclear cells were isolated from the whole blood; interleukin level was determined by ELISA kits (“Immunotech”, France).

IL-3 = test: as above; format: in vivo, human; settings: for IL-3 (×10): asthenoneurotic disorders, humans
Description: as §1

α-INF = test: as above; format: in vivo, human; settings: for α-INF: asthenoneurotic disorders, humans
Description: as §1

α-TNF = test: as above; format: in vivo, human; settings: for α-TNF (×100): asthenoneurotic disorders, humans
Description: as §1

MDA = MDA (lipid peroxidation) in saliva after topical course; format: in vivo; settings: human saliva after topical course treatment, 100 mg per 100 ml water
Excerpt: Studies of the effects of Phenotropil on condition of paradontium, enamel and dentin with topic application involved men and women (45-54 years) diagnosed with periodontitis, parodontosis and caries. Enrollment of groups by separate indicators in this age failed. In the vast majority of subjects, the diseases were combined. The gender ratio in groups was: 30.0% men and 70.0% women, the ratio of smokers to non-smokers 60:40, the number of female smokers was higher than male smokers by 35.0%. All patients received every three days the required amount of 0.1%, 0.2% or 0.3% solution of Phenotropil or placebo. The solutions were applied daily as dental trays (for 30 sec.) in the morning and evening at 30 ml per application for 30 days. Food and drinks intake, including water, were not recommended for 2 hours after the procedure. All patients underwent a dental check-up and standard hygienic treatment with removing plaque and dental scale and lavaging the gingival pockets with 1% Phenotropil solution. For each subject, the studied parameters were recorded; the aggregate integral indicator of the general periodontal condition of enamel and dentin was calculated, in the negative scores. The examinations were conducted once a week throughout the period of monotherapy. […]

patients = test: Seborrhea of scalp and face skin, topical solution; format: in vivo, human; settings: for Efficacy expressed in points on a 4-point scale (seborrhea): humans
Description: A study of effect of Phenotropil on the scalp and face skin in seborrhea oleosa and on the scalp skin in dry seborrhea, as well in the mixed form, was performed on mixed groups of both sexes (15-37 years). The 0.1% Phenotropil solution was used. In the group with mixed form, additional Phenotropil tablets were administered at a dose of 100 mg per day (in the morning). The baseline examinations were used as control. The prepared samples were rubbed into the scalp once a day 1 or 2 hours before bedtime. In the case of acneiform rash, the skin was wiped in the morning and evening by cotton pads soaked (as usual lotion) by 0.1% aqueous Phenotropil. Washing the hair using shampoo was not recommended. A neutral baby soap “Alice” by OAO Svoboda and the rinse prepared with 25 ml of lemon juice and 100 mg Phenotropil powder per 1000.0 ml water were used. Studies were conducted for 28 calendar days with monitoring examinations every 14 days. In the dry seborrhea group, three patients withdrew from the study after two weeks due to reluctance to undergo further examination; they found it difficult to comply with the regime of the detergents use. The skin state was assessed by a 4-point system, where 0—absent, 1—the effect intensity less than 50.0%, 2—the effect intensity more than 50.0%, 3—the effect intensity more than 80% but less than 100.0% of the cases.

[5] = After treatment (one month course)
[6] = patients, 100 mg/day 30 days, after course
[7] = patients, three months after the therapy

NC(=O)CN1CC(c2ccccc2)CC1=O (racemic) [Compound 1, (RS)-2-(2-oxo-4-phenylpyrrolidine-1-yl)acetamide]
mnemotropic effect by ΔLP index versus saline treated control (rats [1]; 50 mg/kg): +133% | mnemotropic effect by ΔLP index versus saline treated control (rats [1]; 100 mg/kg): +504% | mnemotropic effect by ΔLP index versus saline treated control (rats [1]; 300 mg/kg): +696% | LP1 (training) (rats [1]; intragastric 50 mg/kg): 7.2 ± 2.1 | LP2 (at 24 h) (rats [1]; intragastric 50 mg/kg): 18.4 ± 4.6 | ΔLP (rats [1]; intragastric 50 mg/kg): 11.2 ± 3.4 | LP1 (training) (rats [1]; intragastric 100 mg/kg): 7.2 ± 2.1 | LP2 (at 24 h) (rats [1]; intragastric 100 mg/kg): 36.2 ± 4.6 | ΔLP (rats [1]; intragastric 100 mg/kg): 29.0 ± 3.4 | LP1 (training) (rats [1]; intragastric 300 mg/kg): 6.8 ± 1.2^ | LP2 (at 24 h) (rats [1]; intragastric 300 mg/kg): 45.0 ± 7.5 | ΔLP (rats [1]; intragastric 300 mg/kg): 38.2 ± 4.4 | increase of survival time vs control (mice [2]; 50 mg/kg): 65.0% | increase of survival time vs control (mice [2]; 100 mg/kg): 147.8% | increase of survival time vs control (mice [2]; 300 mg/kg): 591.0% | Duration of life (mice [2]; 50 mg/kg): 3.8 ± 0.5 min | Duration of life (mice [2]; 100 mg/kg): 5.7 ± 1.2 min | Duration of life (mice [2]; 300 mg/kg): 15.9 ± 0.4 min | reduction of pain sensitivity (mice [3]; 50 mg/kg, 30 minutes): 14.3% | reduction of pain sensitivity (mice [3]; 50 mg/kg, 60 minutes): 8.3% | reduction of pain sensitivity (mice [3]; 50 mg/kg, 120 minutes): 10.8% | reduction of pain sensitivity (mice [3]; 100.0 mg/kg, 30 minutes): 12.4% | reduction of pain sensitivity (mice [3]; 100.0 mg/kg, 60 minutes): 12.5% | reduction of pain sensitivity (mice [3]; 100.0 mg/kg, 120 minutes): 31.5% | reduction of pain sensitivity (mice [3]; 300.0 mg/kg, 30 minutes): 71.4% | reduction of pain sensitivity (mice [3]; 300.0 mg/kg, 60 minutes): 61.5% | Latent period (hot plate) (mice [3]; 50.0 mg/kg i.p., 30 min): 12.0 ± 1.1 min | Latent period (hot plate) (mice [3]; 50.0 mg/kg i.p., 60 min): 11.7 ± 0.7 min | Latent period (hot plate) (mice [3]; 50.0 mg/kg i.p., 120 min): 12.3 ± 0.8 min | Latent period (hot plate) (mice [3]; 100.0 mg/kg i.p., 30 min): 11.8 ± 0.7^ min. | Latent period (hot plate) (mice [3]; 100.0 mg/kg i.p., 60 min): 13.5 ± 1.4 min | Latent period (hot plate) (mice [3]; 100.0 mg/kg i.p., 120 min): 14.6 ± 1.4 min | Latent period (hot plate) (mice [3]; 300.0 mg/kg i.p., 30 min): 18.0 ± 1.0 min | Latent period (hot plate) (mice [3]; 300.0 mg/kg i.p., 60 min): 18.2 ± 0.8 min | Latent period (hot plate) (mice [3]; 300.0 mg/kg i.p., 120 min): 22.2 ± 1.0 min | altitude at which tremor was displayed (rats [4]; 300 mg/kg): 11 thousand meters | altitude at which tremor was observed (rats [4]; 50 and 100 mg/kg (control 7,000 m)): 10,000 m | Duration of life of animals (rats [4]; ascension to 11000 m, 50 mg/kg): 6.9 ± 0.7 min | Duration of life of animals (rats [4]; ascension to 11000 m, 100 mg/kg): 6.9 ± 0.7 min | Duration of life of animals (rats [4]; ascension to 12000 m, 300 mg/kg): 7.3 ± 0.7 min | tremor during stay at 11,000 meters for 2 hours (rats [4]; control 11 episodes): tremor was observed only once | IL-2 (×10) (IL-2; [5]): 2.09 ± 0.04 | IL-2 (×10) (IL-2; At 3 months after treatment): 2.21 ± 0.04 | IL-2 level vs baseline values (IL-2; [6]): +8.9% | IL-2 level vs baseline (IL-2; [7]): +15.1% | IL-3 (×10) (IL-3; [5]): 2.13 ± 0.05 | IL-3 (×10) (IL-3; At 3 months after treatment): 2.23 ± 0.06 | IL-3 level vs baseline values (IL-3; [6]): +12.7% | IL-3 level vs baseline (IL-3; [7]): +18.0% | α-INF (α-INF; [5]): 4.18 ± 0.06 | α-INF (α-INF; At 3 months after treatment): 4.11 ± 0.05 | α-INF level vs baseline values (α-INF; [6]): −10.3% | α-INF level vs baseline (α-INF; [7]): −11.8% | α-TNF (×100) (α-TNF; [5]): 8.56 ± 0.60 | α-TNF (×100) (α-TNF; At 3 months after treatment): 7.92 ± 0.54 | α-TNF level vs baseline values (α-TNF; [6]): −11.6% | α-TNF level vs baseline (α-TNF; [7]): −18.2% | MDA content (MDA): 0.026 ± 0.0415 nmol/L | therapeutic effect compared to control with simultaneous tablets (patients; 0.1% solution + tablets 100 mg per day): 300.0% | therapeutic effect in seborrhoea compared with control (patients; 0.1% solution, 28 days): 200.0% | Efficacy expressed in points on a 4-point scale (seborrhea) (patients; DF (dry form), topically 0.1% aqueous solution): 2* (the effect intensity more than 50.0%) | Efficacy expressed in points on a 4-point scale (seborrhea) (patients; MF (mixed form), oral 100 mg): 1* (the effect intensity less than 50.0%) | Efficacy expressed in points on a 4-point scale (seborrhea) (patients; MF (mixed form), topically 0.1% aqueous solution + 100 mg orally): 3* (the effect intensity more than 80% but less than 100.0% of the cases) | Efficacy expressed in points on a 4-point scale (seborrhea) (patients; OF (oily form), topically 0.1% aqueous solution): 2* (the effect intensity more than 50.0%)
